According to ChEMBL document CHEMBL1201862, “PubChem BioAssay data set” (2004):
Active and inactive are the calls of the source.

Columns and labels:
[1] = Luminescence Cell-Based Dose Retest to Confirm Inhibitors of Cancer Stem Cells. [Related pubchem assays (depositor defined):AID2717, AID2721]; assay type: functional; settings: Homo sapiens
[2] = target: T1, Heat shock factor protein 1 (Mus musculus, UniProt P38532); test: HSF1 potentiators in luciferase reporter cells, confirmation, cell-based, NIH3T3, luminescence, dose retest (AID 435004); assay type: functional;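 note: stress induced by proteasome inhibitor MG132 added 30 min after compound; luciferase reporter driven by HSF1 response element in NIH3T3 cells; actives raise luminescence as potentiators of the MG132 stress response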
T1 sequence (P38532 whole entry): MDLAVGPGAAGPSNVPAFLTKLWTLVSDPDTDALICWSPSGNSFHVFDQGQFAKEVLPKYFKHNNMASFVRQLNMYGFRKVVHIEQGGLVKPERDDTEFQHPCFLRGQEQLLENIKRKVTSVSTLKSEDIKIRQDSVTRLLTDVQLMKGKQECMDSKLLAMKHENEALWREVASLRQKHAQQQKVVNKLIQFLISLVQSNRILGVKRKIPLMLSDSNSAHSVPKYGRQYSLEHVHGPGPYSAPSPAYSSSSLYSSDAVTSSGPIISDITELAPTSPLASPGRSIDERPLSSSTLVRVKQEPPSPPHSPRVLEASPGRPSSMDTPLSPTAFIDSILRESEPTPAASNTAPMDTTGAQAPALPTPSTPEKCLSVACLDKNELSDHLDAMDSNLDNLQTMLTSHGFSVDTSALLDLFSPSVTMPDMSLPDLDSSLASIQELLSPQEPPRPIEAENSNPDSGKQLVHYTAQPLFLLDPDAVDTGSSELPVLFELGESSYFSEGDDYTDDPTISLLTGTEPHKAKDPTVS

Vero = test: cells; assay type: functional; settings: Chlorocebus sabaeus
Protein skinhead-1 = target: T2, Protein skinhead-1 (Caenorhabditis elegans, UniProt P34707); assay type: functional
T2 sequence (P34707 whole entry): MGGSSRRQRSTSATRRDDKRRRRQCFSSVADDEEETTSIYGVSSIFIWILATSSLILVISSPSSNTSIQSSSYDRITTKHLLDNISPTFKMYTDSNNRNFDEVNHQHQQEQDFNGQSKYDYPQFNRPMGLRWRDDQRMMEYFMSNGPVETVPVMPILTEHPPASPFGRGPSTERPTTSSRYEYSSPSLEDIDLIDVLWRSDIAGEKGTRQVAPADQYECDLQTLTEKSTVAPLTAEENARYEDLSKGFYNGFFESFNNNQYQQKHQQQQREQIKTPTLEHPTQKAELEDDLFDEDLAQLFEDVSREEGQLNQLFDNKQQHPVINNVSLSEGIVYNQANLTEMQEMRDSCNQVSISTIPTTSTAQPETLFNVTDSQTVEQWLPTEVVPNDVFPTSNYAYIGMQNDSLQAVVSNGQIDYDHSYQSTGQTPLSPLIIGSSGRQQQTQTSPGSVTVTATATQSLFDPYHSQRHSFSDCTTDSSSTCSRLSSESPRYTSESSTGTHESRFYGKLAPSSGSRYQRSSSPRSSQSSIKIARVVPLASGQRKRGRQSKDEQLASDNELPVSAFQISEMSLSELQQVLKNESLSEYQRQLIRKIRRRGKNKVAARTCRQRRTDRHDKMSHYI

[3] = target: Hepatocyte nuclear factor 4-alpha (Homo sapiens, UniProt P41235); assay type: functional, cell-based;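 note: biochemical luminescence-based dose-response counterscreen measuring inhibition of HNF4 dimerization, run alongside a screen for blockers of ABHD5–perilipin-5 interaction; split luciferase complementation of HNF4 fusion proteins in cell lysate measuring dimerization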
Hepatocyte nuclear factor 4-alpha, sequence (P41235 whole entry, the tested form may be a part): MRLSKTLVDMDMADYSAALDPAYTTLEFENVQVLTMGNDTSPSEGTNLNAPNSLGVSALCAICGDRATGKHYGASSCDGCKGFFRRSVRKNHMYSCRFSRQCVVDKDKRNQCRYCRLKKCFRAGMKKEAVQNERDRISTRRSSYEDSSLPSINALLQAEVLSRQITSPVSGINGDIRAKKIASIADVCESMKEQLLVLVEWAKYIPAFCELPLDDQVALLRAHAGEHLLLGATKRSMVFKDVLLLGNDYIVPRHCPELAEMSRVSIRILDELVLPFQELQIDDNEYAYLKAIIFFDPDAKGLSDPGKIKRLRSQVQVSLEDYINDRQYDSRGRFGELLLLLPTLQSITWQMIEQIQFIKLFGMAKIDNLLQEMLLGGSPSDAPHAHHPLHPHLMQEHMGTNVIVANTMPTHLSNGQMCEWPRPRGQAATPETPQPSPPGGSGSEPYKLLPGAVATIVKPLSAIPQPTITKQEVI

[4] = target: T3, Beta-2 adrenergic receptor (Homo sapiens, UniProt P07550); test: Dose response for HTS for Beta-2AR agonists via FAP method from Powderset1.; assay type: functional
T3 sequence (P07550 whole entry): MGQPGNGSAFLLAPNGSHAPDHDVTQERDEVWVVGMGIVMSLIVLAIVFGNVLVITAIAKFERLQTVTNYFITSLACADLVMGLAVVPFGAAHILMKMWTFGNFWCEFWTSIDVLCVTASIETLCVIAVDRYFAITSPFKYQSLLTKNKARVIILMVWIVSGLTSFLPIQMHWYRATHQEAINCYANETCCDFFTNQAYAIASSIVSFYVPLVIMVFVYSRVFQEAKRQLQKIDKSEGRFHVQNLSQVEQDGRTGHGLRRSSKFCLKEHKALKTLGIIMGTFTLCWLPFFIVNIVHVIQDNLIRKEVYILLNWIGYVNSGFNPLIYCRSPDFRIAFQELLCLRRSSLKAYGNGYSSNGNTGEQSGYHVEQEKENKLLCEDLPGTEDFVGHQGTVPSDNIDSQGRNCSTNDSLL

[5] = target: T3, Beta-2 adrenergic receptor; test: beta2AR agonists driving receptor internalization, dose response, cell-based, FAP fluorogen, flow cytometry, cherry pick 1 (AID 588763); assay type: functional
[6] = Cytotoxicity Dose Response with AM2.2-beta2AR cells for PowderSet01.; assay type: functional, cell-based; settings: read-out: EC50_MICROM
[7] = target: Glucose-6-phosphate 1-dehydrogenase (Homo sapiens, UniProt P11413); test: human G6PD enzyme inhibitors, dose response, selectivity assay for P. falciparum G6PD inhibitor project, biochemical, fluorescence (AID 504792); assay type: functional
Glucose-6-phosphate 1-dehydrogenase, sequence (P11413 whole entry): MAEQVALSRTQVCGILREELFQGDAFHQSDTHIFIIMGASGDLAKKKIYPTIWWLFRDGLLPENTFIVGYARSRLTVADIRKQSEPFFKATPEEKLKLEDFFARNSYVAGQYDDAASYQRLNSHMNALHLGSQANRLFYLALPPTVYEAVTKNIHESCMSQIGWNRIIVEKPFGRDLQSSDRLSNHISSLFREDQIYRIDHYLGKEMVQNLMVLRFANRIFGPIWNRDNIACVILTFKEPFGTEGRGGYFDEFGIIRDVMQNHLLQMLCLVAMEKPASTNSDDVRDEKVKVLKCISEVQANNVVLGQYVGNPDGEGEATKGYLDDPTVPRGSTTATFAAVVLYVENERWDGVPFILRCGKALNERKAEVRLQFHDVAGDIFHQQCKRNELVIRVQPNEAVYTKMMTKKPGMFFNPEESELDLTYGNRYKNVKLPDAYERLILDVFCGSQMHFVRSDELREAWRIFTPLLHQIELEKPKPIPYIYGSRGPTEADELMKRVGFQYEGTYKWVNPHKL

[8] = target: Tyrosine-protein phosphatase non-receptor type 11 (Homo sapiens, UniProt Q06124); test: SHP2 phosphatase inhibition, dose response, selectivity assay for STEP inhibitor project, biochemical (AID 602367); assay type: functional; settings: read-out: IC50_Mean
Tyrosine-protein phosphatase non-receptor type 11, sequence (Q06124 whole entry): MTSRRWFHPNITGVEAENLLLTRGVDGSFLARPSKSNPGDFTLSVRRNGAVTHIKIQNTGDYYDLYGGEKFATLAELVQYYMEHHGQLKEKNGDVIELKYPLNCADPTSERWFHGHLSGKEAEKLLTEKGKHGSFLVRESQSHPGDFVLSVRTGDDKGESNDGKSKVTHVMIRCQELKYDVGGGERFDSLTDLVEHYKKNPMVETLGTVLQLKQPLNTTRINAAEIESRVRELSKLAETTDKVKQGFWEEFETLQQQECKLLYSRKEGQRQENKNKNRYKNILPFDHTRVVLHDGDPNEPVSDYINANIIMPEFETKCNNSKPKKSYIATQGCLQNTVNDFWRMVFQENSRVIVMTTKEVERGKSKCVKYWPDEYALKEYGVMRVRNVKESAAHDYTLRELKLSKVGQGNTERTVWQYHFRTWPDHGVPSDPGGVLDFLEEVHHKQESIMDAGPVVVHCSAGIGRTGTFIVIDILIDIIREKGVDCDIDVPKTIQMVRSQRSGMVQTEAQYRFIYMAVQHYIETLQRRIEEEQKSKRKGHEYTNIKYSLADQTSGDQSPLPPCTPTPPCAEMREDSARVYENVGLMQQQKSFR

[9] = target: Tyrosine-protein phosphatase non-receptor type 5 (Homo sapiens, UniProt P54829); test: STEP phosphatase inhibitors, confirmation, biochemical, fluorescence intensity, uHTS hits (AID 602372); assay type: functional; settings: read-out: IC50_Mean
Tyrosine-protein phosphatase non-receptor type 5, sequence (P54829 whole entry): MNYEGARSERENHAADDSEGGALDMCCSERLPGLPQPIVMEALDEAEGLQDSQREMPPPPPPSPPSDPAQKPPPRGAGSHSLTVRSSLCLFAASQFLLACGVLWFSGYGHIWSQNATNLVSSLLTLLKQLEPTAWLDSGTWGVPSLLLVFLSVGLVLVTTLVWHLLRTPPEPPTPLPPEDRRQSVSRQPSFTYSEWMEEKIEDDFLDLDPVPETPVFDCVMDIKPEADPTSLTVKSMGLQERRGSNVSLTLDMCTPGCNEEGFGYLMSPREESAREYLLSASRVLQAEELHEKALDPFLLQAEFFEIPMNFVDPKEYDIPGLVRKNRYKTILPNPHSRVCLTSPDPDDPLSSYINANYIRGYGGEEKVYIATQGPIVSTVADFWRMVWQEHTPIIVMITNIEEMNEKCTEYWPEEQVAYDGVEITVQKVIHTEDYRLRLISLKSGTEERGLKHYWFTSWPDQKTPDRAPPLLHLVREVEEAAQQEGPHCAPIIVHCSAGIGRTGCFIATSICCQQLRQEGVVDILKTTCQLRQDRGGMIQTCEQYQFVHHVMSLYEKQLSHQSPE

[10] = target: Dual specificity protein phosphatase 3 (Homo sapiens, UniProt P51452); test: VHR phosphatase inhibition, dose response, selectivity assay for STEP inhibitor project, biochemical (AID 602374); assay type: functional; settings: read-out: IC50_Mean
Dual specificity protein phosphatase 3, sequence (P51452 whole entry): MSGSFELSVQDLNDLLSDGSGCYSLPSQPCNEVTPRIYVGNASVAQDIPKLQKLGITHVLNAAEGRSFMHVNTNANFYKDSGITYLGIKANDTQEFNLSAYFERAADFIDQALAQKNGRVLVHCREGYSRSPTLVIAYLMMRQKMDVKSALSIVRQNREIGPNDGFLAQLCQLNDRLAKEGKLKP

[11] = target: T4, Tyrosine-protein phosphatase non-receptor type 22 (Homo sapiens, UniProt Q9Y2R2); test: PTPN22 phosphatase inhibition, dose response, selectivity assay for STEP inhibitor project, biochemical (AID 624241); assay type: functional
T4 sequence (Q9Y2R2 whole entry): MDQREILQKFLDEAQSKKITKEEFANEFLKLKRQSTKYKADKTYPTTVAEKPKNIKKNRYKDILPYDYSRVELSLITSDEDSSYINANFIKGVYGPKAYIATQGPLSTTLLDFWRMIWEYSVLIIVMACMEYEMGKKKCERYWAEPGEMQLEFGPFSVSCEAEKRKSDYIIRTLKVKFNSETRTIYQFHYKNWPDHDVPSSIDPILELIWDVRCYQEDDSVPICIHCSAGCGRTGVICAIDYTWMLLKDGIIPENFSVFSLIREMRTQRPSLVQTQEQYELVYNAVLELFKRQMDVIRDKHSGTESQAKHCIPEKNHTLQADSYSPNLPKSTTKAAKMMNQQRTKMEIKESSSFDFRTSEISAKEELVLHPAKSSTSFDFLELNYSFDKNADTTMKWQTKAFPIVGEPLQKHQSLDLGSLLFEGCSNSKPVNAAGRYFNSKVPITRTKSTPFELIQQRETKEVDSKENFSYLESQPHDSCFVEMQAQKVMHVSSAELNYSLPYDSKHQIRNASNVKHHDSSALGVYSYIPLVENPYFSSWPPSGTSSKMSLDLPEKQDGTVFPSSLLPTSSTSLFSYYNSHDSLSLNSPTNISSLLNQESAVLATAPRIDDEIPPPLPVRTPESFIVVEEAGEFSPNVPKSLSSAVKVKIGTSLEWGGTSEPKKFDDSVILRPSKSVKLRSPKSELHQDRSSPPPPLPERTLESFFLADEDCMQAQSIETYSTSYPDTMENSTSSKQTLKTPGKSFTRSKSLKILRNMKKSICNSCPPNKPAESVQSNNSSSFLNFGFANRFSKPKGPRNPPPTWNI

[12] = tested on: Streptococcus sp. 'group A'; test: growth inhibition of control SK(-) GAS strain, dose response, counter-screen for streptokinase expression inhibitor project, luminescence, kanamycin, BacTiterGlo, confirmation (AID 1900); assay type: functional, organism-based
Streptokinase A = target: T5, Streptokinase A (Streptococcus pyogenes serotype M1, UniProt P10520); test: S. pyogenes streptokinase expression inhibitors, potency, dose response, plasminogen activation absorbance, OD405 (AID 1914); assay type: functional, Streptococcus pyogenes M1 GAS;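 note: secreted streptokinase activity via plasminogen activation per viability signal from cell pellet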
T5 sequence (P10520 whole entry): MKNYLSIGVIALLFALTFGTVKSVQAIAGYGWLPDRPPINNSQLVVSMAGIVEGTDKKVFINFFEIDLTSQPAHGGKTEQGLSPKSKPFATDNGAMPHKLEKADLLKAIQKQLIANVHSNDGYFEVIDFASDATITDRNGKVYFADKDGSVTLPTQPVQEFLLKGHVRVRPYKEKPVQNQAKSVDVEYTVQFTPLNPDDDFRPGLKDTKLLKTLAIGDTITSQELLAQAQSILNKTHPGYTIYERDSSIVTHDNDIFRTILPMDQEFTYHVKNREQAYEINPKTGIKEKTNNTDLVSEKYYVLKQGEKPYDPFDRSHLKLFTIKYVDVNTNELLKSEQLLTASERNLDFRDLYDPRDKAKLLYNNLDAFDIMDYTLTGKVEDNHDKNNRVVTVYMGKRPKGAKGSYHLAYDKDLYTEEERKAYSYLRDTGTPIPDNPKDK

Streptococcus = test: Group A Streptococcus viability loss, dose response, counter-screen for streptokinase expression inhibitor project, luminescence, BacTiterGlo (AID 1915); assay type: functional, organism-based;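 note: potency for reduction of bacterial viability or growth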
Nonstructural protein 1 = Nonstructural protein 1 (Influenza A virus, UniProt Q194T2); assay type: functional, Influenza A virus (A/California/07/2009(H1N1))
Nonstructural protein 1, sequence (Q194T2 whole entry): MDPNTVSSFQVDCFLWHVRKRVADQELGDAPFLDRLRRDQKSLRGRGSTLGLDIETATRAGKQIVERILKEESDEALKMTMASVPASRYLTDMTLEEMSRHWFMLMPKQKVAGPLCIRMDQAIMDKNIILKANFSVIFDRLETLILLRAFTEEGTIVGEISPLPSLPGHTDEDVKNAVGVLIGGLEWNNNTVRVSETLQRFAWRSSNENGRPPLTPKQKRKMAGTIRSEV

INS1 = test: beta cell apoptosis inhibitors, cytokine rescue, dose response, luminescence, retest (AID 449756); assay type: functional, cell-based; settings: Rattus norvegicus;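 note: cell death triggered by IL-1 beta plus TNF-alpha plus IFN-gamma mixture; protective hits raise ATP signal compared with cytokine alone wells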
[13] = Shn3 3'UTR reporter inhibitors, dose response, cell-based, Clone20 osteoblasts, firefly luciferase, cherry-picked (AID 624132); assay type: functional;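 note: firefly luciferase luminescence from reporter carrying the Shn3 3'UTR in osteoblasts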
[14] = HepG2 cell cytotoxicity, dose response, cytotoxicity control for Shn3 inhibitor project, CellTiter-Glo, cherry-picked (AID 624134); assay type: functional, cell-based
[15] = control 3'UTR Renilla luciferase suppression, dose response, counter-screen for Shn3 inhibitor project, cell-based, Clone20-Shn3RL, cherry-picked (AID 624133); assay type: functional
[16] = target: Photoreceptor-specific nuclear receptor (Homo sapiens, UniProt Q9Y5X4); assay type: functional, cell-based;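 note: CHO-S cells with Gal4-NCOR and VP16-NR2E3 two-hybrid luciferase reporter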
Photoreceptor-specific nuclear receptor, sequence (Q9Y5X4 whole entry, the tested form may be a part): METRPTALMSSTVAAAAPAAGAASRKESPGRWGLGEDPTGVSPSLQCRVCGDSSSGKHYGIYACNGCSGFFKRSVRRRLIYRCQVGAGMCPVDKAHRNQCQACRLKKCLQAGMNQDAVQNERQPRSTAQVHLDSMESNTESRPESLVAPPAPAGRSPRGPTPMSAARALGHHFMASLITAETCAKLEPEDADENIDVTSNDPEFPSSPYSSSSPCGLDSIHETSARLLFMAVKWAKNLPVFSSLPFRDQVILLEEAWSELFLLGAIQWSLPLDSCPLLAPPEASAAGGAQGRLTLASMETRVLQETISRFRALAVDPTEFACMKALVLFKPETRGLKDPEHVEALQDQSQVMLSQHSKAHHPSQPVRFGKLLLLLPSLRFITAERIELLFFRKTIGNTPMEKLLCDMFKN

In the case of `O=C(/C=C/Sc1ccccc1)c1ccc(Cl)cc1`, the AC50 [1] is reported as 3.46 µM (active), the EC50 [2] is reported as 9.05 µM (active) and the CC50 (Vero) is reported as 14.2 µM (active). The IC50 (Protein skinhead-1) was 31 µM (active) and the IC50 [3] was 6.31 µM (active).
With `O=C(Nc1ccc(S(=O)(=O)N2CCCCC2c2cccnc2)cc1)c1c(F)cccc1F` (configuration not stated) the EC50 [4] was 0.119 µM (active), the EC50 [5] was 2.46 µM (active) and the EC50 [6] was 5.39 µM (active).
For `Cc1cc(C)c(NC(S)=NCC2CCN(C(C)c3ccccc3)C2)c(C)c1` (configuration not stated), the IC50 [7] was > 80 µM (inactive), the IC50 [8] was 0.934 µM (active) and the IC50 [9] was 6.09 µM (active). The IC50 [10] was 0.343 µM (active) and the IC50 [11] was 48.4 µM (inactive).
In the case of `CC(C)(C)Nc1nc(-c2ccccn2)nc2ccccc12`, the EC50 [12] is reported as 2.48 µM (active), the EC50 (Streptokinase A) is reported as > 150 µM (not active) and the EC50 (Streptococcus) is reported as 5.93 µM (active). For the same molecule, the IC50 (Nonstructural protein 1) was 12.2 µM (active), the AC50 (INS1) was 2.06 µM (active) and the AC50 [13] was 1.86 µM (active). The AC50 [14] was > 70 µM (inactive), the AC50 [15] was 1.42 µM (active) and the IC50 [16] was 3.88 µM (active).
